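In this assay, cells in 96-well plates receive the compound at five concentrations for 48 hours. Endpoints are linearly interpolated between the surrounding concentrations. The concentration for full growth arrest is given as TGI.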
Legend:
Assay in all cases: growth of human tumour cells (NCI), 48 h
OVCAR-8 ovarian = tested on: OVCAR-8 ovarian
COLO 205 colon = tested on: COLO 205 colon
HL-60(TB) leukemia = tested on: HL-60(TB) leukemia
NCI-H460 lung = tested on: NCI-H460 lung
M14 melanoma = tested on: M14 melanoma
MDA-MB-231 breast = tested on: MDA-MB-231 breast
U251 CNS = tested on: U251 CNS
NCI/ADR-RES ovarian = tested on: NCI/ADR-RES ovarian
786-0 renal = tested on: 786-0 renal
SK-MEL-2 melanoma = tested on: SK-MEL-2 melanoma
KM12 colon = tested on: KM12 colon
MALME-3M melanoma = tested on: MALME-3M melanoma
UACC-257 melanoma = tested on: UACC-257 melanoma
SNB-75 CNS = tested on: SNB-75 CNS
MCF7 breast = tested on: MCF7 breast
RPMI-8226 leukemia = tested on: RPMI-8226 leukemia
SF-295 CNS = tested on: SF-295 CNS
T-47D breast = tested on: T-47D breast
BT-549 breast = tested on: BT-549 breast
DU-145 prostate = tested on: DU-145 prostate
UACC-62 melanoma = tested on: UACC-62 melanoma
NCI-H226 lung = tested on: NCI-H226 lung
OVCAR-4 ovarian = tested on: OVCAR-4 ovarian
OVCAR-5 ovarian = tested on: OVCAR-5 ovarian
SK-MEL-28 melanoma = tested on: SK-MEL-28 melanoma
RXF 393 renal = tested on: RXF 393 renal
MDA-N = tested on: MDA-N
HCT-15 colon = tested on: HCT-15 colon
NCI-H23 lung = tested on: NCI-H23 lung
SR leukemia = tested on: SR leukemia
A498 renal = tested on: A498 renal
A549 NSCLC = tested on: A549 NSCLC
CCRF-CEM leukemia = tested on: CCRF-CEM leukemia
SK-MEL-5 melanoma = tested on: SK-MEL-5 melanoma
SF-268 CNS = tested on: SF-268 CNS
HS 578T breast = tested on: HS 578T breast
HCT-116 colon = tested on: HCT-116 colon
PC-3 prostate = tested on: PC-3 prostate
MOLT-4 leukemia = tested on: MOLT-4 leukemia
CAKI-1 renal = tested on: CAKI-1 renal
HOP-92 NSCLC = tested on: HOP-92 NSCLC
SK-OV-3 ovarian = tested on: SK-OV-3 ovarian
HOP-62 NSCLC = tested on: HOP-62 NSCLC
SF-539 CNS = tested on: SF-539 CNS
OVCAR-3 ovarian = tested on: OVCAR-3 ovarian
HT29 colon = tested on: HT29 colon
SN12C renal = tested on: SN12C renal
MDA-MB-435 = tested on: MDA-MB-435
HCC-2998 colon = tested on: HCC-2998 colon
K-562 leukemia = tested on: K-562 leukemia
ACHN renal = tested on: ACHN renal
EKVX NSCLC = tested on: EKVX NSCLC
UO-31 renal = tested on: UO-31 renal
LOX IMVI melanoma = tested on: LOX IMVI melanoma
TK-10 renal = tested on: TK-10 renal
SNB-19 CNS = tested on: SNB-19 CNS
SW-620 colon = tested on: SW-620 colon
NCI-H522 lung = tested on: NCI-H522 lung
IGROV1 ovarian = tested on: IGROV1 ovarian

Measured: TGI

CCOC(=O)C(NC(=O)CC)(N1CCN(c2cc3c(cc2F)c(=O)c(C(=O)O)cn3C2CC2)CC1)C(F)(F)F (configuration not stated)
> 100 µM: all assays above

Cc1ccc2c(c1)c1ccc3c(c1n2C)C(=O)C=CC3=O
2.19 µM: MOLT-4 leukemia
3.02 µM: ACHN renal
> 8.82 µM: A498 renal
> 7.53 µM: NCI/ADR-RES ovarian
0.871 µM: SR leukemia
3.17 µM: UO-31 renal
3.65 µM: MDA-N
2.68 µM: NCI-H522 lung
5.08 µM: T-47D breast
4.17 µM: CAKI-1 renal
4.99 µM: MCF7 breast
> 7.07 µM: EKVX NSCLC
2.92 µM: HCT-116 colon
1.69 µM: HL-60(TB) leukemia
4.53 µM: OVCAR-3 ovarian
3.44 µM: 786-0 renal
3.92 µM: HCT-15 colon | HOP-92 NSCLC
6.01 µM: OVCAR-8 ovarian | MDA-MB-231 breast
4.2 µM: RPMI-8226 leukemia
3.76 µM: TK-10 renal
3.46 µM: RXF 393 renal
2.37 µM: SW-620 colon
3.8 µM: MALME-3M melanoma
2.31 µM: K-562 leukemia
> 7.51 µM: SN12C renal
4.54 µM: M14 melanoma
5.15 µM: MDA-MB-435
5.82 µM: NCI-H23 lung
0.62 µM: CCRF-CEM leukemia
8.66 µM: HS 578T breast
3.16 µM: COLO 205 colon
4.76 µM: SK-MEL-28 melanoma
9.48 µM: UACC-62 melanoma
> 9.27 µM: PC-3 prostate
2.83 µM: BT-549 breast
4.93 µM: SF-539 CNS
> 5.56 µM: OVCAR-4 ovarian
7.9 µM: UACC-257 melanoma
> 10 µM: all other assays above

CC12c3c4ccc(C=O)c3Oc3ccc(C=O)c(c31)Oc1ccc(C=O)c(c12)O4
not listed: SK-MEL-5 melanoma | HCC-2998 colon | TK-10 renal
> 25 µM: all other assays above

COc1cc(O)c2c(=O)c(OC)c(-c3ccc(OC)c(O)c3)oc2c1
15.3 µM: A498 renal
74.4 µM: CAKI-1 renal
not listed: HOP-92 NSCLC
> 100 µM: all other assays above

Reference: PubChem BioAssay (NCI)
